Results taken from patent US20250049962A1, “NEAR-INFRARED FLUORESCENT CONTRAST BIOIMAGING AGENTS FOR IMAGING OF SENTINEL LYMPH NODES” (Curadel Surgical Innovations, Inc., priority 2021, published 2025).
Entries after “also recorded” stand apart in the source; their conditions may differ.

Experiments:
[1] = Lymph flow imaging after intradermal peri-tail injection; assay type: in vivo, CD-1 mice; conditions: until 15 minutes post injection, ICG at 800 nm, FIG. 4
Description: The same procedure was used using intradermal peri-tail injections to visual lymph flow until 15 minutes post injection at which point the animal was sacrificed. […] The arrow with the circle indicates the first-tier node.

[2] = Biodistribution and clearance 4 hours after intravenous injection; assay type: in vivo, CD-1 mice; conditions: 4 hours post iv injection
Description: (§1) All foot pad injections and intravenous injections were 10 μL of each of these 500 μM concentrations for a total of 5 nmol per injection.
In order to show the biodistribution benefits of ICB, the same procedure was used using intravenous injections. After 4 hours animals were sacrificed, and the target tissue and other major organs including heart, lung, liver, spleen, pancreas, kidneys, duodenum, intestine, and muscle were resected to quantify biodistribution and clearance. A biodistribution analysis of all three dyes at 4 hours post iv injection.

[3] = SLN imaging after footpad injection, NIR fluorescence imaging; assay type: in vivo, CD-1 mice
Text: Neae Infrared fluorescence imaging can be achieved using a number of commercially available imaging systes. For example, the dual-NIR channel FLARE imaging system has been described in detail. It provides simultaneous illumination with white light (400-650 nm) at 40,000 lx, 660 nm NIR Channel 1 excitation at 4 mW/cm^2 and […] NIR Channel 2 excitation at 10 mW/cm^2. Color and two independent NIR fluorescence emission images (≈700 nm for Channel 1 and ≈800 nm for Channel 2) were acquired simultaneously with custom software at rates up to 15 Hz over a 15 cm diameter field of view. NIR fluorescence from Channel 1 was pseudo-colored in red and NIR fluorescence from Channel 2 was pseudo-colored in lime green prior to merger with the color video image. The imaging system was positioned at a distance of 18 inches from the surgical field.
as §1
Sentinel lymph nodes were observed a near infrared (NIR) imaging system.
The target tissue was exposed and the SLN was imaged for NIR fluorescence using dual channels [Channel 1 (700 nm) and Channel 2 (800 nm)] of a NIR imaging system.

[4] = Solubility measurement; assay type: physicochemical
Description: However, the contrast agent is soluble in mixtures of water and ethanol. […] After mixing for an extended period, the solutions were filtered using a 0.45 um spin filter. The solvent of known volumes was then removed by evaporation and solubility was determined by measuring the remaining solids in the pre-measured evaporating flask.

## CC1(C)C(/C=C/C=C/C=C/C=C2\N(CCCCS(=O)(=O)O)c3ccc4ccccc4c3C2(C)C)=[N+](CCCCS(=O)(=O)[O-])c2ccc3ccccc3c21 [ICG, indocyanine green, reference compound]
[1]
  LN skipping: significant LN skipping
[2]; 5 nmol
  signal in the large intestine: enhanced signal
  signal in the stomach: to lesser extent

## 4-[(2Z)-2-[(2E,4E)-5-[3,3-dimethyl-1-(4-sulfobutyl) indol-1-ium-2-yl]penta-2,4-dienylidene]-3,3-dimethylindol-1-yl]butane-1-sulfonic acid [ICB]
[2]
  route of clearance: completely cleared by the liver
[2]; 5 nmol
  signal in the kidneys: Minimal signal
  signal in the large intestine: enhanced signal
  signal in the stomach: to lesser extent
[3]; 5 nmol footpad injection, CD-1 mice
  leakage / flow through from sentinel lymph nodes: considerably less leakage over ICG or SLN700; also recorded: little to no significant flow through
[3]; 15 minutes post-injection, 5 nmol footpad injection, CD-1 mice
  first-tier/second-tier signal-to-background ratio: 5.4±1.6
[3]; compared to SLN700, 700 nm
  brightness of visualization: brighter
[3]; footpad injection, CD-1 mice
  liver (hepatic) clearance observed by the imaging: Visible liver (hepatic) clearance
[4]; D5W
  solubility: at least 10 mg/mL
[4]; water
  solubility: at least 10 mg/mL
